Source: US7649018B2, “Mono- and di-phosphates of 3-(3-fluoro-4-hydroxy-phenyl)-7-hydroxy-naphthalene-1-carbonitrile” (Wyeth LLC, priority 2007, dated 2010)

Experiment: Stability of intravenous stock solution
Type: physicochemical
Conditions: stock solution 10 mg/mL in phosphate buffered saline adjusted to pH about 7.4 with NaOH; at 40 C
Experimental: Preparation Procedures: An intravenous formulation will be made as a stock solution (10 mg/mL) one day prior to the start of dosing consisting of phosphate buffered saline adjusted to pH about 7.4 with NaOH. The dosing formulations will be prepared on the day of dosing by diluting the appropriate amount of the stock solution with D5W to obtain concentrations of 3.14 mg/mL of Compound 3 and then will be sterile filtered using a 0.20 micron filter about few hours prior to the start of dosing. The test formulation was stored at approximately 4° C. protected from light. The vehicle used for IV introduction was phosphate buffered saline consisting of 0.0144% (w/v) of KH2PO4, 0.90% (w/v) of NaCL, 0.0795% (w/v) of Na2HPO4, 0.325% of NaOH (1N) and […] sterile water for injection with the resulting pH of approximately 7.4. The stock solution (10 mg/mL) is stable for 7 days at 40 C.

For `N#Cc1cc(-c2ccc(OP(=O)(O)O)c(F)c2)cc2ccc(OP(=O)(O)O)cc12` [Compound 3], the “Time over which stock solution is stable” value was 7 days.
